Measured values reported in US7708999B2, “Remedies for arthritis” (Kyowa Hakko Kirin Co., Ltd., priority 2001, dated 2010).

Legend:
[1] = system: mouse collagen-induced arthritis model; assay: Mouse collagen-induced arthritis model; format: in vivo; details: positive control, 0.3 mg/mL, 1 mL per 100 g orally
Method: The mouse collagen-induced arthritis model was prepared in the following manner according to the method of Kamada et al., (Kamada H. et al., Jpn. J. Pharmacol., 70, 169-175, 1996) using DBA/1J mice (male, 7 weeks old, Japan Charles River).
A bovine cartilage-derived type II collagen solution (manufactured by Collagen Gijutsu Kenshu) was mixed with a Freund's complete adjuvant (manufactured by Iatron) under ice cooling to form an emulsion which was adjusted such that the final concentration of the type II collagen became 1.5 mg/mL. The emulsion was intradermally injected in amount of 100 μL at the base of the tail of the mouse for sensitization. Twenty-one days later, the additional immunization was performed in the same manner. One group consisted of 10 mice. Anti-FGF-8 neutralizing antibody KM1334 was dissolved in a saline (manufactured by Otsuka Seiyaku Kojo) to a final concentration of 2 mg/mL, and the solution was intraperitoneally administered to a KM1334 administrated group at a dose of 200 μL for each mouse once a day on days 21, 25, 28, 32, 35 and 39 from the initial sensitization of the mouse collagen-induced arthritis model. […] The change with time of edemas of all limbs in collagen-induced arthritis was evaluated by the scoring from 0 to 4 in each limb to a total of 16 at the maximum score in all limbs. […]

[2] = system: rat adjuvant arthritis model; assay: Rat adjuvant arthritis model; format: in vivo
Method: The rat adjuvant arthritis model was performed in the following manner according to the method of Pearson et al. (Pearson CM. et al., Arthritis Rheum., 5, 654-658, 1962) using Lewis rats (female, 8 weeks old, Japan Charles River).
Mycobacterium butyricum (manufactured by Difco) was suspended in a liquid paraffin (manufactured by Wako Pure Chemical Industries, Ltd.) to a final concentration of 6 mg/mL, and sterilized with a autoclave. The resulting solution was intradermally injected into the rat right hind pad in an amount of 100 μL for sensitization. One group consisted of 8 to 10 rats. Anti-FGF-8 neutralizing antibody KM1334 was dissolved in saline to a final concentration of 2 mg/mL. The solution was intraperitoneally administered to a KM1334 administrated group once a day at a dose of 0.5 mL per 100 g of the body weight for each rat on the sensitization day of the rat adjuvant arthritis model and on days 3, 7, 10, 14 and 17 from the sensitization. To saline administrated group, only saline was intraperitoneally administered instead of the anti-FGF-8 neutralizing antibody KM1334 solution. Further, sodium diclofenac, an antiinflammatory agent, was dissolved in a 0.5 w/v % methyl cellulose solution to a final concentration of 0.3 mg/mL, and the solution was orally administered to a sodium diclofenac administrated group as a positive control once a day at a dose of 1 mL per 100 g of the body weight on days 4, 7 to 11 and 14 to 18 from the adjuvant sensitization day. 50 mg of methotrexate® for injection (manufactured by Wyeth Japan) as a metabolic antagonist was dissolved in a 0.5 w/v % methyl cellulose solution to a final concentration of 0.01 mg/mL, and the solution was administered to a methotrexate administrated group in the same manner as in the sodium diclofenac administrated group. Prednisolone (manufactured by Sigma-Aldrich), a steroidal agent, was suspended in a 0.5 w/v % methyl cellulose solution to a final concentration of 0.3 mg/mL, and the suspension was administered to a prednisolone administrated group in the same manner as in the sodium diclofenac administrated group. Further, a 0.5 w/v % methyl cellulose solution alone was orally administered to a solvent administrated group in the same manner. An untreated group was used, and it was not subjected to sensitization with Mycobacterium butyricum and administration of an agent. The volumes of the adjuvant-treated paw and the adjuvant-untreated paw were measured as time goes by using a device for measuring edemas of rat hind paw (TK-101, manufactured by Unicom).
Using urine collected for 24 hours at day 20 and day 21 after the sensitization, the amounts of glycosaminoglycan, deoxypyridinoline, hydroxyproline and creatinine in urine were measured. The amount of glycosaminoglycan in urine was measured by the DMMB method described in Example 1. The amount of hydroxyproline in urine was measured by the method of Ikeda et al. (Ikeda Shingo et al., Tokyo Eiken Nenpo, 36 277-282, 1985). That is, 0.8 mL of hydrochloric acid for amino acid analysis (manufactured by Kanto Kagaku) was added to 0.8 mL of urine to hydrolyze at 110° C. for 15 hours. To 0.5 mL of the hydrolyzed sample was added 2 mL of a 1.2 mol/L sodium hydroxide solution for neutralization. 1 mL of isopropanol was added to 0.5 mL of the neutralized sample, and 1 ml of an oxidant solution was added. The mixture was stirred well, and allowed to stand at room temperature for 5 minutes. […]

[3] = target: T1, FGF-8 (Homo sapiens, UniProt P55075); assay: FGF-8 binding activity by BIAcore 2000, immobilized FGF-8; details: antibody 50 μg/mL; FGF-8 immobilized 4498 RU
T1 construct: purchased R & D
T1 sequence (P55075 23-215 isoform P55075-3 limits assumed): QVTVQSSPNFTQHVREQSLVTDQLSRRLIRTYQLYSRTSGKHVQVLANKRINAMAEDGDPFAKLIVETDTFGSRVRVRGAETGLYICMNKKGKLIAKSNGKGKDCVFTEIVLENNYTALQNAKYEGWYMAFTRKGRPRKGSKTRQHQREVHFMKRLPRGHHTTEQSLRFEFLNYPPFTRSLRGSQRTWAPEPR
Method: In order to examine the FGF-8 binding activity of the various anti-FGF-8 neutralizing CDR-grafted antibodies obtained in 4. of Reference Example 2 in more detail, the FGF-8 binding activity of the various anti-FGF-8 neutralizing CDR-grafted antibodies was measured and compared in the following manner using BIAcore2000 (manufactured by BIACORE). The YB2/0 cell-derived anti-FGF-8 neutralizing chimeric antibody KM3334 obtained in 3.(2) of Reference Example 1 was used as a positive control.
HBS-EP (manufactured by BIACORE) was used hereinafter as a sample diluent and a buffer during measurement. First, Sensor Chip CM5 (manufactured by BIACORE) was installed, and FGF-8 (manufactured by R & D) dissolved in 31.25 μg/mL of 10 mmol/L acetate buffer solution (pH 4.0) was immobilized on the surface of the sensor chip by the amine coupling method. The immobilization amount measured by using a resonance signal (RU) as an index was 4498 RU.
60 μL of each of the antibody solutions was added to an FGF-8 immobilized flow cell at a flow rate of 20 μL/min, and the dissociation reaction was then monitored for 3 minutes. After the dissociation reaction, 20 μL of a 10 mmol/L glycine-hydrochloride solution (pH 1.5) was added to the flow cell twice continuously to regenerate the surface of the chip. This cycle was performed with the antibody solution at various concentrations (from 50 to 0.068 μg/mL) to obtain sensor grams at various concentrations. The sensor grams of the respective antibodies were converted to sensor grams of specific reactions by deducing a sensor gram obtained using chimeric antibody KM871 (Shitara K. et al., Cancer Immunol. Immunother., 36, 373-380, 1993) to GD3 as a negative control. […] Accordingly, the binding activity of the various antibodies was compared in terms of the binding [resonance signal (RU)] in the binding reaction. […] The effect of restoring the binding activity was not observed in the 6 amino acid residues of FR of VH.

O=C(O)Cc1ccccc1Nc1c(Cl)cccc1Cl [sodium diclofenac]
degree of the inhibition of the arthritic score compared with the KM1334 administrated group [1]: the same
Bone destruction score ([2]; Table 2, soft X-ray of calcaneus, adjuvant-untreated paw, day 21, maximum 5, mean ± standard error, oral comparators): 3.1 ± 0.6
Bone destruction score (% inhibition) ([2]; Table 2, vs solvent group): 33%
inhibition of the increase in paw volume, adjuvant-untreated paw ([2]; day 21, oral, 1 mL per 100 g: sodium diclofenac 0.3 mg/mL, methotrexate 0.01 mg/mL, prednisolone 0.3 mg/mL, vs solvent group): 45%
inhibition of the increase (decrease) in amount of glycosaminoglycan in urine ([2]; urine day 20 to 21, oral comparators vs solvent group, diclofenac and prednisolone not significant): 40%
inhibition of the increase (decrease) in amount of deoxypyridinoline in urine ([2]; urine day 20 to 21, oral comparators vs solvent group, methotrexate and prednisolone not significant): 88%

B1: KM3334: anti-FGF-8 neutralizing human chimeric antibody, VH SEQ ID NO. 5, VL SEQ ID NO. 6, human γ1/κ, YB2/0 cell-derived (antibody, listed as Mus musculus, V domains shown)
VH: QVQLQQSGAEVARPGASVKLSCKASGYTFTDYYLNWVKQRSGQGLEWIGEIDPGSDSIYYNENLEGRATLTADKSSSTAYMQLNSLTSEDSAVYFCARYGYSRYDVRFVYWGQGTLVTVST
VL: DVLMTQTPLSLPVSLGDQASISCRSSQSLVHSNGRTYLEWYLQKPGQSPKVLIYKVSNRISGVPDRFSGSGSGTDFTLKISRVEAEDLGVYFCFQGSHVPYTFGGGTKLEIK
binding reaction [resonance signal (RU)] [3]: the highest binding reaction

B2: HV6LV6: YB2/0 cell-derived anti-FGF-8 neutralizing CDR-grafted antibody, VH HV.6 (SEQ ID NO. 20), VL LV.6 (SEQ ID NO. 21) (antibody, V domains shown)
VH: QVQLVQSGAEVARPGASVKVSCKASGYTFTDYYLNWVRQRSGQGLEWIGEIDPGSDSIYYNENLEGRVTITADTSTSTAYMELSSLRSEDTAVYFCARYGYSRYDVRFVYWGQGTLVTVSS
VL: DVVMTQSPLSLPVSLGEPASISCRSSQSLVHSNGRTYLEWYLQKPGQSPKVLIYKVSNRISGVPDRFSGSGSGTDFTLKISRVEAEDVGVYFCFQGSHVPYTFGQGTKVEIK
modifications: HV.6, a designed amino acid sequence of VH of an anti-FGF-8 CDR-grafted neutralizing antibody; LV.6, a designed amino acid sequence of VL of an anti-FGF-8 CDR-grafted neutralizing antibody
binding reaction [resonance signal (RU)] [3]: slightly low in comparison to KM3334 and HV0LV6

B3: HV0LV6: YB2/0 cell-derived anti-FGF-8 neutralizing CDR-grafted antibody, VH HV.0 (SEQ ID NO. 18), VL LV.6 (SEQ ID NO. 21) (antibody, V domains shown)
VH: QVQLVQSGAEVKKPGASVKVSCKASGYTFTDYYLNWVRQAPGQGLEWMGEIDPGSDSIYYNENLEGRVTITADTSTSTAYMELSSLRSEDTAVYYCARYGYSRYDVRFVYWGQGTLVTVSS
VL: DVVMTQSPLSLPVSLGEPASISCRSSQSLVHSNGRTYLEWYLQKPGQSPKVLIYKVSNRISGVPDRFSGSGSGTDFTLKISRVEAEDVGVYFCFQGSHVPYTFGQGTKVEIK
modifications: HV.0, a designed amino acid sequence of VH of an anti-FGF-8 CDR-grafted neutralizing antibody; LV.6, a designed amino acid sequence of VL of an anti-FGF-8 CDR-grafted neutralizing antibody
binding reaction [resonance signal (RU)] [3]: the same high binding reaction as KM3334

B4: HV0LV0: YB2/0 cell-derived anti-FGF-8 neutralizing CDR-grafted antibody, VH HV.0 (SEQ ID NO. 18), VL LV.0 (SEQ ID NO. 19) (antibody, V domains shown)
VH: QVQLVQSGAEVKKPGASVKVSCKASGYTFTDYYLNWVRQAPGQGLEWMGEIDPGSDSIYYNENLEGRVTITADTSTSTAYMELSSLRSEDTAVYYCARYGYSRYDVRFVYWGQGTLVTVSS
VL: DIVMTQSPLSLPVTPGEPASISCRSSQSLVHSNGRTYLEWYLQKPGQSPQLLIYKVSNRISGVPDRFSGSGSGTDFTLKISRVEAEDVGVYYCFQGSHVPYTFGQGTKVEIK
modifications: HV.0, a designed amino acid sequence of VH of an anti-FGF-8 CDR-grafted neutralizing antibody; LV.0, a designed amino acid sequence of VL of an anti-FGF-8 CDR-grafted neutralizing antibody
binding reaction [resonance signal (RU)] [3]: slightly low in comparison to KM3334 and HV0LV6
